From patent US20020055528A1, “Artemisinin analogs having antimalarial, antiproliferative, and antitumor activities and chemoselective methods of making the same” (priority 1999, published 2002)

Legend:
MDA-MB231/ATCC = test: NCI 60 cell line screen (SRB), Breast Cancer; format: cell-based; details: MDA- (first line of MDA-MB231/ATCC); for Log10TGI: PG=0
MCF7 = test: NCI 60 cell line screen (SRB), Breast Cancer; format: cell-based; details: for Log10TGI: PG=0
SK-MEL-28 = test: NCI 60 cell line screen (SRB), Melanoma; format: cell-based; details: for Log10TGI: PG=0
MDA-MB-435 = test: NCI 60 cell line screen (SRB), Breast Cancer; format: cell-based; details: for Log10TGI: PG=0
NCI-H226 = test: NCI 60 cell line screen (SRB), Non-Small Cell Lung Cancer; format: cell-based; details: for Log10TGI: PG=0
K-562 = test: NCI 60 cell line screen (SRB), Leukemia; format: cell-based; details: for Log10TGI: PG=0
MDA-N = test: NCI 60 cell line screen (SRB), Breast Cancer; format: cell-based; details: for Log10TGI: PG=0
SW-620 = test: NCI 60 cell line screen (SRB), Colon Cancer; format: cell-based; details: for Log10TGI: PG=0
COLO 205 = test: NCI 60 cell line screen (SRB), Colon Cancer; format: cell-based; details: for Log10TGI: PG=0
UACC-257 = test: NCI 60 cell line screen (SRB), Melanoma; format: cell-based; details: for Log10TGI: PG=0
[1] = test system: P. vivax and P. falciparum; details: 2099 cases of malaria, different dosage forms; cited from earlier work
SK-MEL2 = test: NCI 60 cell line screen (SRB), Melanoma; format: cell-based; details: for Log10TGI: PG=0
UACC-62 = test: NCI 60 cell line screen (SRB), Melanoma; format: cell-based; details: for Log10TGI: PG=0
HCT-116 = test: NCI 60 cell line screen (SRB), Colon Cancer; format: cell-based; details: for Log10TGI: PG=0
[2] = test system: MB231/ATCC (second line of the wrapped label, with values of its own); test: NCI 60 cell line screen (SRB), Breast Cancer; format: cell-based
RPMI-8226 = test: NCI 60 cell line screen (SRB), Leukemia; format: cell-based; details: for Log10TGI: PG=0
P. berghei = details: P. berghei-infected mice; parasitemia 90 percent suppressed; cited from earlier work
PC-3 = test: NCI 60 cell line screen (SRB), Prostate Cancer; format: cell-based; details: for Log10TGI: PG=0
OVCAR-4 = test: NCI 60 cell line screen (SRB), Ovarian Cancer; format: cell-based
CAKI-1 = test: NCI 60 cell line screen (SRB), Renal Cancer; format: cell-based
SF-268 = test: NCI 60 cell line screen (SRB), CNS Cancer; format: cell-based
HS 578T = test: NCI 60 cell line screen (SRB), Breast Cancer; format: cell-based
[3] = test system: murine keratinocyte cell line PE; test: Growth inhibition of PE cells, MTT assay; format: cell-based; details: 100 nanomolar; compared with calcitriol; FIG. 5
Protocol: To determine the inhibitory effect of the compositions of the present invention on cell proliferation, screening assays were performed on a murine keratinocyte cell line PE. Cell line PE was chosen for its particular sensitivity to the induction of omithine decarboxylase (ODC) activity by the extensively characterized tumor promoter TPA. Cell line PE was derived from a papilloma-induced in female SENCAR mice by a standard skin initiation/promotion protocol, see Yuspa, S. H., et al., Carcinogenesis, 7:949-958 (1986). PE cell culture medium consisted of Eagle's minimal essential medium without calcium chloride (Whittaker Bioproducts, Walkersville, Mass.) supplemented with 8% chelexed fetal calf serum and 1% antibiotic-antimycotic (Gibco BRL) and the addition of CaCI2 to 0.05 mM Ca^++
MTT [3-(4,5-dimethylthiazol-2-yl)-2,5-diphenyltetraxolium bromide] was purchased from Sigma Chemical Co. (St. Louis, Mo.), and TPA was supplied by L.C. Services (Woburn, Mass.). L-[^14C]omithine ([…]) was from Amersham/Searle Corp. (Arlington Heights, Ill.). Chemical solvents used in all assays of biological activity were of the highest grade commercially available.
Growth curves, shown in FIG. 5, for PE cells treated with calcitriol and the C-10 carbon-substituted dimers VII-f, VII-g and VII-h generated by assay for the reduction of the tetrazolium-based compound MTT, see Charmichael, et al., Cancer Res., 47:936-942 (1987). A mitochondrial dehydrogenase reduces MTT to a blue formazan product with an absorbance maximum of 505 nm in DMSO; the number of viable cells can thus be determined spectrophotometrically. PE cells were seeded at a density of 5,000 cells/well in 50 IL of medium into 96-well microtiter plates. Twelve hours later, the medium was removed, and cells were treated with 100 μL of fresh medium into which the appropriate amount of calcitriol or analog dissolved in dimethyl sulfoxide (DMSO) had been added, with the concentration of DMSO held constant at 0.1 %. […] At 24-hour intervals following the initial treatment of the cells with compounds, 0.1 mg (50 μL of a 2 mg/mL solution) of MTT was added to each well. After 4 hours, the MTT was removed and DMSO added to dissolve the blue formazan dye. Using a microtiter plate reader, the A505 was then determined and cell number calculated from blank-subtracted absorbance values.

SK-OV-3 = test: NCI 60 cell line screen (SRB), Ovarian Cancer; format: cell-based
NCI-H460 = test: NCI 60 cell line screen (SRB), Non-Small Cell Lung Cancer; format: cell-based
[4] = Table IV (LC50, PG=−50), MDA-MB-435

C[C@@H]1CC[C@H]2[C@@H](C)C(=O)O[C@@H]3O[C@]4(C)CC[C@@H]1[C@]32OO4 [Artemisinin, artemisinin]
Log10TGI (MDA-MB231/ATCC): −4.00 log10M
Log10TGI (MCF7): >−4.00 log10M
Log10GI50 (MCF7; PG=+50): >−4.00 log10M
Log10GI50 (MCF7; Table IV (LC50, PG=−50)): >−4.00 log10M
Log10TGI (SK-MEL-28): >−4.00 log10M
Log10GI50 (SK-MEL-28; PG=+50): >−4.00 log10M
Log10GI50 (SK-MEL-28; Table IV (LC50, PG=−50)): >−4.00 log10M
Log10TGI (MDA-MB-435; MDA-MB-435): >−4.00 log10M
Log10GI50 (MDA-MB-435; MDA-MB−435, PG=+50): >−4.00 log10M
Log10GI50 (MDA-MB-435; [4]): >−4.00 log10M
Log10TGI (NCI-H226): >−4.00 log10M
Log10GI50 (NCI-H226; PG=+50): >−4.00 log10M
Log10GI50 (NCI-H226; Table IV (LC50, PG=−50)): >−4.00 log10M
Log10TGI (K-562): −4.00 log10M
Log10GI50 (K-562; PG=+50): −4.33 log10M
Log10GI50 (K-562; Table IV (LC50, PG=−50)): >−4.00 log10M
Log10TGI (MDA-N): −4.00 log10M
Log10GI50 (MDA-N; PG=+50): −4.06 log10M
Log10GI50 (MDA-N; Table IV (LC50, PG=−50)): >−4.00 log10M
Log10TGI (SW-620): >−4.00 log10M
Log10TGI (COLO 205): >−4.00 log10M
Log10GI50 (COLO 205; PG=+50): >−4.00 log10M
Log10GI50 (COLO 205; Table IV (LC50, PG=−50)): >−4.00 log10M
Log10TGI (UACC-257): >−4.00 log10M
clinical outcome [1]: clinical cure of all patients
Log10TGI (SK-MEL2): >−4.00 log10M
Log10TGI (UACC-62): >−4.00 log10M
Log10GI50 (UACC-62; PG=+50): >−4.00 log10M
Log10GI50 (UACC-62; Table IV (LC50, PG=−50)): >−4.00 log10M
Log10TGI (HCT-116): >−4.00 log10M
Log10TGI ([2]; PG=0): >−4.00 log10M
Log10GI50 ([2]; PG=+50): >−4.00 log10M
Log10GI50 ([2]; Table IV (LC50, PG=−50)): >−4.00 log10M
Log10TGI (RPMI-8226): >−4.00 log10M
Log10GI50 (RPMI-8226; PG=+50): >−4.00 log10M
Log10GI50 (RPMI-8226; Table IV (LC50, PG=−50)): >−4.00 log10M
SD90 (P. berghei): 6.20 mg/kg
Log10TGI (PC-3): −4.00 log10M

CC1=C(C=Cc2cccc(C=CC3=C(C)C4CCC(C)C5CCC6(C)OOC45C(O3)O6)c2)OC2OC3(C)CCC4C(C)CCC1C24OO3 (stereo not shown) [VII-f]
Log10TGI (MDA-MB231/ATCC): −4.70 log10M
Log10 GI50 or LC50 (per conditions) (MDA-MB231/ATCC; PG=+50): −5.67 log10M
Log10 GI50 or LC50 (per conditions) (MDA-MB231/ATCC; Table IV (LC50, PG=−50)): >−4.00 log10M
Log10GI50 (OVCAR-4; OVCAR-4, PG=+50): −5.93 log10M
Log10GI50 (OVCAR-4; Table IV (LC50, PG=−50), OVCAR−4): >−4.00 log10M
Log10TGI (CAKI-1; PG=0): >−4.00 log10M
Log10GI50 (CAKI-1; PG=+50): −5.17 log10M
Log10GI50 (CAKI-1; Table IV (LC50, PG=−50)): >−4.00 log10M
Log10TGI (MCF7): >−4.00 log10M
Log10GI50 (MCF7; PG=+50): −6.06 log10M
Log10GI50 (MCF7; Table IV (LC50, PG=−50)): >−4.00 log10M
Log10TGI (SK-MEL-28): >−4.00 log10M
Log10GI50 (SK-MEL-28; PG=+50): −4.00 log10M
Log10GI50 (SK-MEL-28; Table IV (LC50, PG=−50)): >−4.00 log10M
Log10TGI (MDA-MB-435; MDA-MB-435): >−4.00 log10M
Log10GI50 (MDA-MB-435; MDA-MB−435, PG=+50): −5.86 log10M
Log10GI50 (MDA-MB-435; [4]): >−4.00 log10M
Log10TGI (NCI-H226): >−4.00 log10M
Log10GI50 (NCI-H226; PG=+50): −4.61 log10M
Log10GI50 (NCI-H226; Table IV (LC50, PG=−50)): >−4.00 log10M
Log10TGI (SF-268; PG=0): >−4.00 log10M
Log10GI50 (SF-268; PG=+50): −5.70 log10M
Log10TGI (K-562): −6.18 log10M
Log10GI50 (K-562; PG=+50): −6.18 log10M
Log10GI50 (K-562; Table IV (LC50, PG=−50)): >−4.00 log10M
Log10TGI (MDA-N): −4.18 log10M
Log10GI50 (MDA-N; PG=+50): −5.74 log10M
Log10GI50 (MDA-N; Table IV (LC50, PG=−50)): >−4.00 log10M
Log10TGI (HS 578T; PG=0): −4.31 log10M
Log10GI50 (HS 578T; PG=+50): −5.94 log10M
Log10GI50 (HS 578T; Table IV (LC50, PG=−50)): >−4.00 log10M
antiproliferative activity in words [3]: at least as antiproliferative as calcitriol
Log10TGI (SW-620): >−4.00 log10M
Log10GI50 (SW-620; PG=+50): −5.90 log10M
Log10TGI (COLO 205): −5.93 log10M
Log10GI50 (COLO 205; PG=+50): −6.61 log10M
Log10GI50 (COLO 205; Table IV (LC50, PG=−50)): −5.30 log10M
Log10TGI (UACC-257): >−4.00 log10M
Log10 GI50 (PG=+50) or Log10 LC50 (PG=−50) (UACC-257; PG=+50): −6.02 log10M
Log10 GI50 (PG=+50) or Log10 LC50 (PG=−50) (UACC-257; Table IV (LC50, PG=−50)): >−4.00 log10M
Log10TGI (SK-OV-3; PG=0): >−4.00 log10M
Log10GI50 (SK-OV-3; PG=+50): −4.52 log10M
Log10GI50 (SK-OV-3; Table IV (LC50, PG=−50)): >−4.00 log10M
Log10TGI (SK-MEL2): −4.26 log10M
Log10 GI50 or LC50 (per conditions) (SK-MEL2; PG=+50): −5.85 log10M
Log10 GI50 or LC50 (per conditions) (SK-MEL2; Table IV (LC50, PG=−50)): >−4.00 log10M
Log10TGI (UACC-62): >−4.00 log10M
Log10GI50 (UACC-62; PG=+50): −4.90 log10M
Log10GI50 (UACC-62; Table IV (LC50, PG=−50)): >−4.00 log10M
Log10TGI (HCT-116): >−4.00 log10M
Log10 GI50 (PG=+50) or Log10 LC50 (PG=−50), as given per row condition (HCT-116; PG=+50): −6.12 log10M
Log10 GI50 (PG=+50) or Log10 LC50 (PG=−50), as given per row condition (HCT-116; Table IV (LC50, PG=−50)): >−4.00 log10M
Log10GI50 ([2]; PG=+50): −6.13 log10M
Log10GI50 ([2]; Table IV (LC50, PG=−50)): >−4.00 log10M
Log10TGI (RPMI-8226): −6.21 log10M
Log10GI50 (RPMI-8226; PG=+50): −6.21 log10M
Log10GI50 (RPMI-8226; Table IV (LC50, PG=−50)): >−4.00 log10M
Log10TGI (PC-3): >−4.00 log10M
Log10 GI50 (PG=+50) or LC50 (PG=−50) (PC-3; PG=+50): −6.30 log10M
Log10 GI50 (PG=+50) or LC50 (PG=−50) (PC-3; Table IV (LC50, PG=−50)): >−4.00 log10M
Log10TGI (NCI-H460; PG=0): >−4.00 log10M
Log10 GI50 or Log10 LC50 (NCI-H460; PG=+50): −6.03 log10M
